Measurements: patent US20100216779A1 (GLAXOSMITHKLINE LLC, priority 2007, published 2010)
pIC50: −log10 of the molar value.

Experiments:
Assay type in all cases: cell-based
[1] = target: T1, IR (NIH-3T3 cells over expressing human IGF-1R or IR) (Homo sapiens, UniProt P06213); assay: IR cellular autophosphorylation (DELFIA); settings: NIH-3T3 cells over expressing IR, insulin stimulated
T1 construct: expressed in transfected cells; host or cells: NIH-3T3 (mouse fibroblasts)
Outline: (§1)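 Receptor-overexpressing NIH-3T3, 10% FBS, 37 °C; cpd 30 uM–1.5 nM × 2 h; stim IGF-1 30 ng/mL (IGF-1R) or insulin 3 ug/mL (IR), 15 min; lysate DELFIA, Eu anti-pTyr; % of stimulated signal.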

[2] = system: COLO205 (colon); assay: Inhibition of cell proliferation, CellTiter-Glo, COLO205; settings: Homo sapiens, COLO 205, 72 h
Outline: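 Exponentially growing COLO205 cells in medium with 10% FBS were plated below 2000 cells/well at 37 °C, 5% CO2. Untreated wells served as controls.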

[3] = system: NCI-H929 (multiple myeloma); assay: Inhibition of cell proliferation, CellTiter-Glo, NCI-H929; settings: Homo sapiens, 72 h
Outline: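 Cells were grown in medium with 10% FBS at 37° C, 5% CO2. Cell number was read as CellTiter-Glo luminescence (cellular ATP), with untreated wells as control.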

[4] = target: T2, human IGF-1R (NIH-3T3 cells over expressing human IGF-1R) (Homo sapiens, UniProt P08069); assay: IGF-1R cellular autophosphorylation (DELFIA); settings: IGF-1 stimulated
T2 construct: expressed in transfected cells; host or cells: NIH-3T3 (mouse fibroblasts)
Outline: as §1

T1 sequence (P06213 28-1382): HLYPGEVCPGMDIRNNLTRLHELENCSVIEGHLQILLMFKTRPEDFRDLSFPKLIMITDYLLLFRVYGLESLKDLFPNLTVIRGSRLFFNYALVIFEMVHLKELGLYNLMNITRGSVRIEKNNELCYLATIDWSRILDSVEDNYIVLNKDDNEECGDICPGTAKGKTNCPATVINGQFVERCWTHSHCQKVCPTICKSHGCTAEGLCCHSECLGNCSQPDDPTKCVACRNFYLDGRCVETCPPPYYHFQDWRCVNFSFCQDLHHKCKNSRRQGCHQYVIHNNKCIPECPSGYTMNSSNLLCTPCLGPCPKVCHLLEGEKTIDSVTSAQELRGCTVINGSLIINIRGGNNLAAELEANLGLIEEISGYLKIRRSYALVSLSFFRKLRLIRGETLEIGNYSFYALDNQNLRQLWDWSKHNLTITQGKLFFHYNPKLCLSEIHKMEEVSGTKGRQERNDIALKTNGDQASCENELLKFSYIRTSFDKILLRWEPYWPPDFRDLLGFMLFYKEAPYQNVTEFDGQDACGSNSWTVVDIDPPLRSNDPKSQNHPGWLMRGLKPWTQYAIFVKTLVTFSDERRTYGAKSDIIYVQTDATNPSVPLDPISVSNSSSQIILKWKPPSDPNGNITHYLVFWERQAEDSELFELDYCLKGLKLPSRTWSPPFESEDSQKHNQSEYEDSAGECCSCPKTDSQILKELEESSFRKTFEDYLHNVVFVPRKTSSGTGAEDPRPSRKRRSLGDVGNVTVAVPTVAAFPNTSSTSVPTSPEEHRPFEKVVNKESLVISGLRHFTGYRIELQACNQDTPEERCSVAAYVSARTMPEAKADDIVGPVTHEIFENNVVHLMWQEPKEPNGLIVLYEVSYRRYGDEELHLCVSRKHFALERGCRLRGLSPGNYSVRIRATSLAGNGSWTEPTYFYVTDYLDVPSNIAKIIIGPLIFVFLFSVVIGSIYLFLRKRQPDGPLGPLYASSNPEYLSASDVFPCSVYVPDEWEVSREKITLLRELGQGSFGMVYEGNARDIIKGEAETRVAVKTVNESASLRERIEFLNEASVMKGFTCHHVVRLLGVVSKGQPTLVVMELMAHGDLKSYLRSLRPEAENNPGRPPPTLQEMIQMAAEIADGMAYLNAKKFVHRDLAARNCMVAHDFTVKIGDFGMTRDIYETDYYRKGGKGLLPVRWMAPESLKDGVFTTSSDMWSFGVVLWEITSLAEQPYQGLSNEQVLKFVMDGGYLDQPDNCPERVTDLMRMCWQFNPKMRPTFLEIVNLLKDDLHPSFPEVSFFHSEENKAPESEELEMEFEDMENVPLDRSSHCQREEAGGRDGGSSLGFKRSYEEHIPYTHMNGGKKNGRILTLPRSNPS
T2 sequence (P08069 31-1367): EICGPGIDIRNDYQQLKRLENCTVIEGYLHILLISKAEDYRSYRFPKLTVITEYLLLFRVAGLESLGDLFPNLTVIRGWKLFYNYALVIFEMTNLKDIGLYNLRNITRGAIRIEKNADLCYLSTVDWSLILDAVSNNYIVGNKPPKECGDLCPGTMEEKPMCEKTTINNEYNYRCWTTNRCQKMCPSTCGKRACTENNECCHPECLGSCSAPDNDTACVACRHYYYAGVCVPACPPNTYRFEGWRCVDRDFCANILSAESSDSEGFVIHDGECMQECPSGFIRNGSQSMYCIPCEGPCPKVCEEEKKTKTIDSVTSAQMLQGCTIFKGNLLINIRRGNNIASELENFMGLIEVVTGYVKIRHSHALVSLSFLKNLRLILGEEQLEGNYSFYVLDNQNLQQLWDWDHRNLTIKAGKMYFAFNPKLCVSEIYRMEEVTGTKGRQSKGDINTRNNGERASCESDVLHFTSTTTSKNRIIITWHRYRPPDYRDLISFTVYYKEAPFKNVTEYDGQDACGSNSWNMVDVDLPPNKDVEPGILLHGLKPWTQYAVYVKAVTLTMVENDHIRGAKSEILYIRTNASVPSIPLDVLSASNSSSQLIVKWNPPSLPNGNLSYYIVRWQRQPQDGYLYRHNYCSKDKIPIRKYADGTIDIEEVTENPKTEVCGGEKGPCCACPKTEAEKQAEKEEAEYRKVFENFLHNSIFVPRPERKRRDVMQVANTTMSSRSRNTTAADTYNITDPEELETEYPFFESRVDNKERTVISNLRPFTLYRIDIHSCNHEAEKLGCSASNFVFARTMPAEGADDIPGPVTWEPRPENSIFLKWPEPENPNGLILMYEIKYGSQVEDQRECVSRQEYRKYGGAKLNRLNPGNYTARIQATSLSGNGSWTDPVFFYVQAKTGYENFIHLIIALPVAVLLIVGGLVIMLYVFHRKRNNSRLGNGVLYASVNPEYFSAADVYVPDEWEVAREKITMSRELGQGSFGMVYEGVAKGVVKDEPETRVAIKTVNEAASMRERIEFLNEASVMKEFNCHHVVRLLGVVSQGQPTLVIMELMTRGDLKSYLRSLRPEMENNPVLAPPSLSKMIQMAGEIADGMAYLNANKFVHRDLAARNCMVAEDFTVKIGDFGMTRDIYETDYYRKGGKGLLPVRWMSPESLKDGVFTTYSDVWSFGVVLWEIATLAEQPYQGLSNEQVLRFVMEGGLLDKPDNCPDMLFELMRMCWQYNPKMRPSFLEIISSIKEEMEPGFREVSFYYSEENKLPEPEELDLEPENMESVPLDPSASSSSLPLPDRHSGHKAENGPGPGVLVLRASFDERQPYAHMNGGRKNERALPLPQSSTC

pIC50 [1]	pIC50 [2]	pIC50 [3]	pIC50 [4]	Compound
> 7.00	6.00 to 6.60	> 6.60	> 7.00	CCCN1CCN(c2ccc(Nc3nccc(-c4c(-c5ccc(OC)c(C(=O)Nc6c(F)cccc6F)c5)nc5ccccn45)n3)c(OC)c2)CC1 [Example 174, N-(2,6-difluorophenyl)-2-(methyloxy)-5-[3-(2-{[2-(methyloxy)-4-(4-propyl-1-piperazinyl)phenyl]amino}-4-pyrimidinyl)imidazo[1,2-a]pyridin-2-yl]benzamide]
> 7.00	6.00 to 6.60	> 6.60	> 7.00	CCOc1ccc(-c2nc3ccccn3c2-c2ccnc(Nc3ccc(N4CCN(C(C)C)CC4)cc3OC)n2)cc1C(=O)Nc1c(F)cccc1F [Example 177, N-(2,6-difluorophenyl)-2-(ethyloxy)-5-[3-(2-{[4-[4-(1-methylethyl)-1-piperazinyl]-2-(methyloxy)phenyl]amino}-4-pyrimidinyl)imidazo[1,2-a]pyridin-2-yl]benzamide]
> 7.00	6.00 to 6.60	> 6.60	> 7.00	COc1cc(C2CCN(CCS(C)(=O)=O)CC2)ccc1Nc1nccc(-c2c(-c3cccc(C(=O)Nc4c(F)cccc4F)c3)nc3ccccn23)n1 [Example 180, N-(2,6-difluorophenyl)-3-(3-{2-[(2-(methyloxy)-4-{1-[2-(methylsulfonyl)ethyl]-4-piperidinyl}phenyl)amino]-4-pyrimidinyl}imidazo[1,2-a]pyridin-2-yl)benzamide]
> 7.00	> 6.60	> 6.60	> 7.00	CCOc1cc(C2CCN(CCS(C)(=O)=O)CC2)ccc1Nc1nccc(-c2c(-c3ccc(OCC)c(C(=O)Nc4c(F)cccc4F)c3)nc3ccccn23)n1 [Example 185, N-(2,6-difluorophenyl)-2-(ethyloxy)-5-(3-{2-[(2-(ethyloxy)-4-{1-[2-(methylsulfonyl)ethyl]-4-piperidinyl}phenyl)amino]-4-pyrimidinyl}imidazo[1,2-a]pyridin-2-yl)benzamide]
6.30 to 7.00	6.00 to 6.60	6.00 to 6.60	> 7.00	COc1cc(N2CCC(N3CCN(S(C)(=O)=O)CC3)CC2)ccc1Nc1nccc(-c2c(-c3cccc(C(=O)Nc4c(F)cccc4F)c3)nc3c(F)cccn23)n1 [Example 192, N-(2,6-difluorophenyl)-3-(8-fluoro-3-{2-[(2-(methyloxy)-4-{4-[4-(methylsulfonyl)-1-piperazinyl]-1-piperidinyl}phenyl)amino]-4-pyrimidinyl}imidazo[1,2-a]pyridin-2-yl)benzamide]
6.30 to 7.00	< 6.00	> 6.60	> 7.00	COc1cc(N2CCC(N3CCN(CCS(C)(=O)=O)CC3)CC2)ccc1Nc1nccc(-c2c(-c3cccc(C(=O)Nc4c(F)cccc4F)c3)nc3c(F)cccn23)n1 [Example 193, N-(2,6-difluorophenyl)-3-[8-fluoro-3-(2-{[2-(methyloxy)-4-(4-{4-[2-(methylsulfonyl)ethyl]-1-piperazinyl}-1-piperidinyl)phenyl]amino}-4-pyrimidinyl)imidazo[1,2-a]pyridin-2-yl]benzamide]
> 7.00	6.00 to 6.60	> 6.60	> 7.00	COc1cc(N2CCC(N3CCN(S(C)(=O)=O)CC3)CC2)ccc1Nc1nccc(-c2c(-c3ccc(OC)c(C(=O)Nc4c(F)cccc4F)c3)nc3cc(F)ccn23)n1 [Example 199, N-(2,6-difluorophenyl)-5-(7-fluoro-3-{2-[(2-(methyloxy)-4-{4-[4-(methylsulfonyl)-1-piperazinyl]-1-piperidinyl}phenyl)amino]-4-pyrimidinyl}imidazo[1,2-a]pyridin-2-yl)-2-(methyloxy)benzamide]

The next lines start with the molecule.

Compound	pIC50 [1]	pIC50 [2]	pIC50 [3]	pIC50 [4]
COc1cc(N2CCN(C(C)C)CC2)ccc1Nc1nccc(-c2c(-c3ccc(OC)c(C(=O)Nc4c(F)cccc4F)c3)nc3ccccn23)n1 [Example 176, N-(2,6-difluorophenyl)-5-[3-(2-{[4-[4-(1-methylethyl)-1-piperazinyl]-2-(methyloxy)phenyl]-amino}-4-pyrimidinyl)imidazo[1,2-a]pyridin-2-yl]-2-(methyloxy)benzamide]	> 7.00	6.00 to 6.60	> 6.60	> 7.00
CCCN1CCN(c2ccc(Nc3nccc(-c4c(-c5ccc(OCC)c(C(=O)Nc6c(F)cccc6F)c5)nc5ccccn45)n3)c(OC)c2)CC1 [Example 178, N-(2,6-difluorophenyl)-2-(ethyloxy)-5-[3-(2-{[2-(methyloxy)-4-(4-propyl-1-piperazinyl)phenyl]amino}-4-pyrimidinyl)imidazo[1,2-a]pyridin-2-yl]benzamide]	> 7.00	6.00 to 6.60	> 6.60	> 7.00
COc1cc(N2CCC(N3CCN(CCF)CC3)CC2)ccc1Nc1nccc(-c2c(-c3cccc(C(=O)Nc4c(F)cccc4F)c3)nc3c(F)cccn23)n1 [Example 188, N-(2,6-difluorophenyl)-3-[8-fluoro-3-(2-{[4-{4-[4-(2-fluoroethyl)-1-piperazinyl]-1-piperidinyl}-2-(methyloxy)phenyl]amino}-4-pyrimidinyl)imidazo[1,2-a]pyridin-2-yl]benzamide]	6.30 to 7.00	< 6.00	6.00 to 6.60	> 7.00
COc1cc(N2CCC(N3CCN(CCF)CC3)CC2)ccc1Nc1nccc(-c2c(-c3cccc(C(=O)Nc4c(F)cccc4F)c3)nc3cc(C(F)(F)F)ccn23)n1 [Example 189, N-(2,6-difluorophenyl)-3-[3-(2-{[4-{4-[4-(2-fluoroethyl)-1-piperazinyl]-1-piperidinyl}-2-(methyloxy)phenyl]amino}-4-pyrimidinyl)-7-(trifluoromethyl)imidazo[1,2-a]pyridin-2-yl]benzamide]	< 6.30	< 6.00	6.00 to 6.60	6.30 to 7.00
COc1cc(N2CCC(N3CCCCC3)CC2)ccc1Nc1nccc(-c2c(-c3cccc(C(=O)Nc4c(F)cccc4F)c3)nc3c(F)cccn23)n1 [Example 190, 3-[3-(2-{[4-(1,4′-bipiperidin-1-yl)-2-(methyloxy)phenyl]amino}-4-pyrimidinyl)-8-fluoroimidazo[1,2-a]pyridin-2-yl]-N-(2,6-difluorophenyl)benzamide]	6.30 to 7.00	6.00 to 6.60	6.00 to 6.60	> 7.00
COc1cc(N2CCC(N3CCN(CCF)CC3)CC2)ccc1Nc1nccc(-c2c(-c3cccc(C(=O)Nc4c(F)cccc4F)c3)nc3cc(F)ccn23)n1 [Example 194, N-(2,6-difluorophenyl)-3-[7-fluoro-3-(2-{[4-{4-[4-(2-fluoroethyl)-1-piperazinyl]-1-piperidinyl}-2-(methyloxy)phenyl]amino]-4-pyrimidinyl)imidazo[1,2-a]pyridin-2-yl]benzamide]	6.30 to 7.00	6.00 to 6.60	6.00 to 6.60	> 7.00
COc1cc(N2CCC(N3CCCCC3)CC2)ccc1Nc1nccc(-c2c(-c3cccc(C(=O)Nc4c(F)cccc4F)c3)nc3cc(F)ccn23)n1 [Example 195, 3-[3-(2-{[4-(1,4′-bipiperidin-1′-yl)-2-(methyloxy)phenyl]amino}-4-pyrimidinyl)-7-fluoroimidazo[1,2-a]pyridin-2-yl]-N-(2,6-difluorophenyl)benzamide]	> 7.00	6.00 to 6.60	6.00 to 6.60	> 7.00
COc1cc(N2CCC(N3CCN(S(C)(=O)=O)CC3)CC2)ccc1Nc1nccc(-c2c(-c3cccc(C(=O)Nc4c(F)cccc4F)c3)nc3cc(F)ccn23)n1 [Example 196, N-(2,6-difluorophenyl)-3-(7-fluoro-3-{2-[(2-(methyloxy)-4-{4-[4-(methylsulfonyl)-1-piperazinyl]-1-piperidinyl}phenyl)amino]-4-pyrimidinyl}imidazo[1,2-a]pyridin-2-yl)benzamide]	> 7.00	6.00 to 6.60	> 6.60	> 7.00
COc1cc(N2CCC(N3CCN(CCF)CC3)CC2)ccc1Nc1nccc(-c2c(-c3ccc(OC)c(C(=O)Nc4c(F)cccc4F)c3)nc3cc(F)ccn23)n1 [Example 197, N-(2,6-difluorophenyl)-5-[7-fluoro-3-(2-{[4-{4-[4-(2-fluoroethyl)-1-piperazinyl]-1-piperidinyl]-2-(methyloxy)phenyl]amino}-4-pyrimidinyl)imidazo[1,2-a]pyridin-2-yl]-2-(methyloxy)benzamide]	> 7.00	6.00 to 6.60	> 6.60	> 7.00
COc1cc(N2CCC(N3CCCCC3)CC2)ccc1Nc1nccc(-c2c(-c3ccc(OC)c(C(=O)Nc4c(F)cccc4F)c3)nc3cc(F)ccn23)n1 [Example 198, 5-[3-(2-{[4-(1,4′-bipiperidin-1′-yl)-2-(methyloxy)phenyl]amino}-4-pyrimidinyl)-7-fluoroimidazo[1,2-a]pyridin-2-yl]-N-(2,6-difluorophenyl)-2-(methyloxy)benzamide]	> 7.00	6.00 to 6.60	> 6.60	> 7.00
CCOc1ccc(-c2nc3ccccn3c2-c2ccnc(Nc3ccc(N4CCC(CCS(C)(=O)=O)CC4)cc3OC)n2)cc1C(=O)Nc1c(F)cccc1F [Example 200, N-(2,6-difluorophenyl)-2-(ethyloxy)-5-(3-{2-[(2-(methyloxy)-4-{4-[2-(methylsulfonyl)ethyl]-1-piperidinyl}phenyl)amino]-4-pyrimidinyl}imidazo[1,2-a]pyridin-2-yl)benzamide]	> 7.00	> 6.60	> 6.60	> 7.00
